Reference: US7232906B2, “Substituted pyrrolines as kinase inhibitors” (Janssen Pharmaceutica N.V., priority 2002, dated 2007)

Assays:
Assay type in all cases: biochemical
PKC β-II = PKC β-II (Homo sapiens, UniProt P05771); assay: Protein Kinase C histone-based assay, β-II isoform; design: PKC Activity Beta II, % @ 1 μM (Histone Based Assay): scale not given here; details: histone III substrate; for IC50: 30 μM ATP, approximately ± 30 percent margin of error, read-out: PKC Activity Beta II (IC50, Histone Based Assay)
PKC β-II, sequence (P05771 1-673 isoform P05771-2): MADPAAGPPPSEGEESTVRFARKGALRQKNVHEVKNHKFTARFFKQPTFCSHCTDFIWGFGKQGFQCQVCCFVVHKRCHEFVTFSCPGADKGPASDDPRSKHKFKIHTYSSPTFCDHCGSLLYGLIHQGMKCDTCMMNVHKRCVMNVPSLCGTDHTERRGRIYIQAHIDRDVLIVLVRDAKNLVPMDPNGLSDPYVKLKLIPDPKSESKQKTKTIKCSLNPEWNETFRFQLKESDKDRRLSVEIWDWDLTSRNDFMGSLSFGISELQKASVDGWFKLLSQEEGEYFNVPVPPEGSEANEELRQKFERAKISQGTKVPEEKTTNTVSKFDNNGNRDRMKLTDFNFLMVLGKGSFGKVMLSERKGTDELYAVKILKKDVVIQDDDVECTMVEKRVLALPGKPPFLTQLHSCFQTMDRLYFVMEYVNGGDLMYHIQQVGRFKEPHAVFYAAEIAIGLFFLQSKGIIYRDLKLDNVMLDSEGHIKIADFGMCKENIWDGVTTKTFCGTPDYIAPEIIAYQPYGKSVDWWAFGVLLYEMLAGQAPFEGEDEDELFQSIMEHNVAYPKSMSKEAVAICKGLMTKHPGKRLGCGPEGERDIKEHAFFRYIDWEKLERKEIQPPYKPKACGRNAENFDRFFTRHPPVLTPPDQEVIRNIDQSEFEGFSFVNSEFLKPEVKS
Description: (§1) Compounds were evaluated for PKC selectivity using histone III as the substrate. The PKC isoforms α, β-II or γ were added to a reaction mixture that contained 20 mM HEPES, (pH 7.4), 940 μM CaCl2, 10 mM MgCl2, 1 mM EGTA. 100 μg/mL phosphatidylserine, 20 μg/mL diacylglycerol, 30 μM ATP, 1 μCi (^33P)ATP and 200 μg/mL histone III. The reaction was incubated for 10 min at 30° C. Reactions were terminated by TCA precipitation and spotting on Whatman P81 filters. Filters were washed in 75 mM phosphoric acid and the radioactivity quantified by liquid scintillation counting.

PKC α = PKC α (Homo sapiens, UniProt P17252); assay: Protein Kinase C histone-based assay, α isoform; design: PKC Activity Alpha, % @ 10 μM (Histone Based Assay): scale not given here; details: histone III substrate; for IC50: 30 μM ATP, approximately ± 30 percent margin of error, read-out: PKC Activity Alpha (IC50, Histone Based Assay)
Description: as §1

PKC γ = PKC γ (Homo sapiens, UniProt P05129); assay: Protein Kinase C histone-based assay, γ isoform; design: PKC Activity Gamma, % @ 10 μM (Histone Based Assay): scale not given here; details: histone III substrate; for IC50: 30 μM ATP, approximately ± 30 percent margin of error, read-out: PKC Activity Gamma (IC50, Histone Based Assay)
Description: as §1

[1] = molecular target: recombinant rabbit GSK-3β (Oryctolagus cuniculus, UniProt G1T8E2); assay: Glycogen Synthase Kinase-3 assay; design: GSK-3β Assay Activity, % @ 200 nM: scale not given here; details: PPI-2 substrate; for IC50: 33P-ATP, 90 minutes at 30° C.
recombinant rabbit GSK-3β, sequence (G1T8E2 1-432): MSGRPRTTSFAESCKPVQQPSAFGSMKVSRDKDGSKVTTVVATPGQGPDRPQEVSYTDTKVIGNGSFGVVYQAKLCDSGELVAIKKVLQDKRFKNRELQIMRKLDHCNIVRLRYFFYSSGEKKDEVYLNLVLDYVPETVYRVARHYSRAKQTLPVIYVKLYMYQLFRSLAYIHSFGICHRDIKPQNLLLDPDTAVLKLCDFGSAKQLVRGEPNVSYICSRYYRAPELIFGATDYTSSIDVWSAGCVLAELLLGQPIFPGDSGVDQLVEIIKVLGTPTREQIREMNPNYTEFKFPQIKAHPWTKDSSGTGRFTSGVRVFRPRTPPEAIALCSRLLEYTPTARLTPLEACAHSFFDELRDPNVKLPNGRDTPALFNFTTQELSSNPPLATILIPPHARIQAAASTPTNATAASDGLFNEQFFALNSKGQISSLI
Description: Compounds were tested for the ability to inhibit recombinant rabbit GSK-3β using the following protocol. The test compound was added to a reaction mixture containing Protein phosphatase inhibitor-2 (PPI-2) (Calbiochem) (45 ng), rabbit GSK-3β (New England Biolabs) (0.75 units) and ^33P-ATP (1 μCi) in 50 mM Tris-HCl (pH 8.0), 10 mM MgCl2, 0.1% BSA, 1 mM DTT and 100 μM Sodium Vanadate. The mixture was reacted for 90 minutes at 30° C. to allow phosphorylation of the PPI-2 protein and then the protein in the reaction was precipitated using 10% TCA. The precipitated protein was collected on filter plates (MultiScreen-DV/Millipore), which were subsequently washed. Finally, the radioactivity was quantified using a TopCount Scintillation Counter (Packard). […] Staurosporine or Valproate, known inhibitors of GSK-3β, were used as a positive control for screening.

Compound	IC50 (PKC β-II)	IC50 (PKC α)	IC50 [1]	GSK-3β Assay Activity, % @ 200 nM [1]	also measured
CN(C)CCCn1cc(C2=C(c3csc4ccc(Cl)cc34)C(=O)NC2=O)c2ccccc21 [Cpd 31, 3-(5-chlorobenzo[b]thien-3-yl)-4-[1-[3-(dimethylamino)propyl]-1H-indol-3-yl]-1H-pyrrole-2,5-dione]	81 nM	83 nM			
COc1ccccc1C1=C(c2cn(-c3cncc(C(N)=O)c3)c3ccc(Cl)cc23)C(=O)NC1=O [Cpd 58, 5-{5-Chloro-3-[4-(2-methoxyphenyl)-2,5-dioxo-2,5-dihydro-1H-pyrrol-3-yl]-indol-1-yl}-nicotinamide]	32 nM	816 nM	18 nM		IC50 (PKC γ): 1270 nM
O=C1NC(=O)C(c2cn(-c3cccnc3)c3ccccc23)=C1c1ccc(O)cc1 [Cpd 29, 3-(4-hydroxyphenyl)-4-[1-(3-pyridinyl)-1H-indol-3-yl]-1H-pyrrole-2,5-dione]			96 nM		
COc1ccccc1C1=C(c2cn(C3CCOCC3)c3ccccc23)C(=O)NC1=O [Cpd 55, 3-(2-Methoxyphenyl)-4-[1-(tetrahydropyran-4-yl)-1H-indol-3-yl]-1H-pyrrole-2,5-dione]	107 nM	412 nM	25 nM		IC50 (PKC γ): 282 nM
COc1ccccc1C1=C(c2cn(CC=O)c3ccccc23)C(=O)NC1=O [Cpd 8, 3-[2,5-dihydro-4-(2-methoxyphenyl)-2,5-dioxo-1H-pyrrol-3-yl]-1H-indole-1-acetaldehyde]			39 nM		
COc1ccccc1C1=C(c2cn(-c3cncc(C(=O)O)c3)c3ccc(Cl)cc23)C(=O)NC1=O [Cpd 56, 5-{5-Chloro-3-[4-(2-methoxyphenyl)-2,5-dioxo-2,5-dihydro-1H-pyrrol-3-yl]-indol-1-yl}-nicotinic acid]	42 nM	592 nM	51 nM		IC50 (PKC γ): 832 nM
3-(3-bromophenyl)-4-[1-[3-(3-butynylmethylamino)propyl]-1H-indol-3-yl]-1H-pyrrole-2,5-dione [Cpd 22]				62% @ 200 nM	
CN(C)CC(O)COc1ccccc1C1=C(c2cn(CCO)c3ccccc23)C(=O)NC1=O (stereo not shown) [Cpd 21, 3-[2-[3-(dimethylamino)-2-hydroxypropoxy]phenyl]-4-[1-(2-hydroxyethyl)-1H-indol-3-yl]-1H-pyrrole-2,5-dione]	51 nM	117 nM			IC50 (PKC γ): 477 nM
CN(CCO)CCn1cc(C2=C(c3csc4ccc(Cl)cc34)C(=O)NC2=O)c2ccccc21 [Cpd 41, 3-(5-chlorobenzo[b]thien-3-yl)-4-(1-[2-[(2-hydroxyethyl)methylamino]ethyl]-1H-indol-3-yl]-1H-pyrrole-2,5-dione]				81% @ 200 nM	
COc1ccccc1C1=C(c2cn(CCN(C)CCO)c3ccccc23)C(=O)NC1=O [Cpd 9, 3-[1-[2-[(2-hydroxyethyl)methylamino]ethyl]-1H-indol-3-yl]-4-(2-methoxyphenyl)-1H-pyrrole-2,5-dione]			27 nM		PKC Activity Beta II, % @ 1 μM (Histone Based Assay) (PKC β-II): 40% @ 1 μM; PKC Activity Alpha, % @ 10 μM (Histone Based Assay) (PKC α): 27% @ 10 μM; PKC Activity Gamma, % @ 10 μM (Histone Based Assay) (PKC γ): 15% @ 10 μM
COc1ccccc1C1=C(c2cn(-c3cncnc3)c3ccccc23)C(=O)NC1=O [Cpd 26, 3-(2-methoxyphenyl)-4-[1-(5-pyrimidinyl)-1H-indol-3-yl]-1H-pyrrole-2,5-dione]	607 nM	2070 nM	8 nM		PKC Activity Gamma, % @ 10 μM (Histone Based Assay) (PKC γ): 29% @ 10 μM
COc1ccccc1C1=C(c2cn(-c3cccnc3)c3ccccc23)C(=O)NC1=O [Cpd 27, 3-(2-methoxyphenyl)-4-[1-(3-pyridinyl)-1H-indol-3-yl]-1H-pyrrole-2,5-dione]	527 nM		26 nM		PKC Activity Alpha, % @ 10 μM (Histone Based Assay) (PKC α): 66% @ 10 μM
O=C1NC(=O)C(c2cn(-c3cccnc3)c3ccccc23)=C1c1ccccc1O [Cpd 28, 3-(2-hydroxyphenyl)-4-[1-(3-pyridinyl)-1H-indol-3-yl]-1H-pyrrole-2,5-dione]			68 nM		
O=C1NC(=O)C(c2cn(CCN3CCSC3)c3ccccc23)=C1c1csc2ccc(Cl)cc12 [Cpd 46, 3-(5-chlorobenzo[b]thien-3-yl)-4-[1-[2-(3-thiazolidinyl)ethyl]-1H-indol-3-yl]-1H-pyrrole-2,5-dione]				45% @ 200 nM	
3-(2-bromo-5-[3-(dimethylamino)propyl]phenyl]-4-(1-phenyl-1H-indol-3-yl)-1H-pyrrole-2,5-dione [Cpd 25]			110 nM		
3-[1-[3-(3-butynylmethylamino)propyl]-1H-indol-3-yl]-4-(3-iodophenyl)-1H-pyrrole-2,5-dione [Cpd 23]				67% @ 200 nM	
CN(C)CCCn1cc(C2=C(c3cccc4ccccc34)C(=O)NC2=O)c2ccccc21 [Cpd 12, 3-[1-[3-(dimethylamino)propyl]-1H-indol-3-yl]-4-(1-naphthalenyl)-1H-pyrrole-2,5-dione]				64% @ 200 nM	
CCOC(Cn1cc(C2=C(c3ccccc3OC)C(=O)NC2=O)c2ccccc21)OCC [Cpd 7, 3-[1-(2,2-diethoxyethyl)-1H-indol-3-yl]-4-(2-methoxy-phenyl)-1H-pyrrole-2,5-dione]			390 nM		PKC Activity Beta II, % @ 1 μM (Histone Based Assay) (PKC β-II): 68% @ 1 μM; PKC Activity Alpha, % @ 10 μM (Histone Based Assay) (PKC α): 39% @ 10 μM; PKC Activity Gamma, % @ 10 μM (Histone Based Assay) (PKC γ): 54% @ 10 μM
C=Cn1cc(C2=C(c3cccc(OCC(O)CN(C)C)c3)C(=O)NC2=O)c2ccccc21 (stereo not shown) [Cpd 2, 3-[3-[3-(dimethylamino)-2-hydroxypropoxy]phenyl]-4-(1-ethenyl-1H-indol-3-yl)-1H-pyrrole-2,5-dione]				72% @ 200 nM	
COC(=O)c1cncc(-n2cc(C3=C(c4ccccc4OC)C(=O)NC3=O)c3cc(Cl)ccc32)c1 [Cpd 57, 5-{5-Chloro-3-[4-(2-methoxyphenyl)-2,5-dioxo-2,5-dihydro-1H-pyrrol-3-yl]-indol-1-yl}-nicotinic acid methyl ester]			40 nM		
